# Reference: US20250223301A1, “KINASE INHIBITORS, PREPARATION METHODS AND USES THEREOF” (InventisBio Co., Ltd., priority 2022, published 2025)
# How the values were obtained:
# [1] = system: PBMC; assay: Human PBMC IL-2 assay; format: cell-based; conditions: anti-CD3/CD28 stimulation overnight, IL-2 level
# Method: PBMC (frozen) obtained from health donor were thawed in RPMI-1640 medium with 10% FBS and incubated for 4 h at 37° C. In a 96-well plate, −200,000 PBMC cells in 160 uL were added to each assay well. Ten microliter compound solution (10 uM to 0.6 nM, 8 points with 4-fold dilution) were added to cells in each well and incubated for 60 minutes at 37° C. Then 30 uL anti-CD3/CD28 antibody (Catalog #10991, Stemcell) were added to cells and incubated overnight at 37° C. After the incubation, 16 uL supernatants were transferred into a new 384-well white assay plate for cytokine analysis. IL-2 level was quantified using Human IL-2 kit (Catalog #62HIL02PEG, Cisbio) as described in the manufacturer manual.
# (§1) X is log of compound concentration, Y is the IL-2 concentration, increasing as X increases.
# [2] = system: Jurkat cells; assay: Jurkat IL-2 assay; format: cell-based; conditions: Homo sapiens, anti-CD3/CD28 stimulation overnight, IL-2 level
# Method: Jurkat cells (ATCC) were cultured in RPMI-1640 medium supplemented with 10% FBS. In a 96-well plate, −250,000 cells in 130 uL were added to each assay well. Ten microliter compound solution (5 uM to 2.3 nM, 8 points with 3-fold dilution) were added to cells in each well and incubated for 60 minutes at 37° C. Then 10 uL anti-CD3/CD28 antibody (Catalog #10991, Stemcell) were added and incubated overnight at 37° C. After the incubation, 16 uL supernatants were transferred into a new 384-well white assay plate for cytokine analysis. IL-2 was quantified using Human IL-2 kit (Catalog #62HIL02PEG, Cisbio) as described in the manufacturer manual.
# as §1
EC50 [2] [nM],Structure (SMILES),EC50 [1] [nM]
76,CC[C@@H]1CN2c3c(c(=O)n(C)c4ccc(C#N)nc34)OC[C@@H]2CN1[C@@H](CC)c1cccc(C(F)(F)F)c1 (stereo in doubt) [Compound 149],162
86,CC[C@H]1CN([C@@H](CC)c2ccc(F)c(F)c2)[C@H](CC)CN1c1nc2nncn2c2ccc(C#N)nc12 (stereo in doubt) [Compound 200],42
1010,CC[C@H]1CN([C@H](CC)c2c(Cl)cccc2Cl)[C@H](CC)CN1c1nc2nncn2c2ccc(C#N)nc12 (stereo in doubt) [Compound 209],1380
8,CC[C@@H]1CN2c3c(c(=O)n(C)c4ccc(C#N)nc34)OC[C@@H]2CN1[C@@H](CC)c1ccc(Cl)cc1F (stereo in doubt) [Compound 295],10
34,CC[C@@H]1CN2c3c(c(=O)n(C)c4ccc(C#N)nc34)OC[C@@H]2CN1[C@@H](CC)c1ccc(Cl)c(F)c1 (stereo in doubt) [Compound 297],12
96,CC[C@@H]1CN2c3c(c(=O)n(C)c4ccc(C#N)nc34)OC[C@@H]2CN1[C@H](CC)c1ccc(C)cc1 (stereo in doubt) [Compound 344],53
242,CC[C@@H]1CN2c3c(c(=O)n(C)c4ccc(C#N)nc34)OC[C@@H]2CN1[C@@H](CC)c1c(Cl)cccc1Cl (stereo in doubt) [Compound 240],109
90,CC[C@H]1CN([C@H](C)c2ccc(C(F)(F)F)cc2)[C@H](C)CN1c1nc2nncn2c2ccc(C#N)nc12 (stereo in doubt) [Compound 315],63
1110,CC[C@H]1CN([C@H](CC)c2ccc(F)cc2F)[C@H](CC)CN1c1nc2nncn2c2ccc(C#N)nc12 (stereo in doubt) [Compound 195],2200
63,CC[C@@H]1CN2c3c(c(=O)n(C)c4ccc(C#N)nc34)OC[C@@H]2CN1[C@@H](CC)c1ccc(Cl)cc1 (stereo in doubt) [Compound 244],11
202,CC[C@H]1CN([C@H](c2ccc(C(F)(F)F)cc2)C(C)C)[C@H](CC)CN1c1nc2nncn2c2ccc(C#N)nc12 (stereo in doubt) [Compound 204],107
822,CC[C@H]1CN([C@H](CC)c2ccc(F)c(F)c2)[C@H](CC)CN1c1nc2nncn2c2ccc(C#N)nc12 (stereo in doubt) [Compound 201],520
18,CC[C@@H]1CN2c3c(c(=O)n(C)c4ccc(C#N)nc34)OC[C@@H]2CN1[C@@H](CC)c1ccc(C)cc1 (stereo in doubt) [Compound 345],10
209,CC[C@@H]1CN2c3c(c(=O)n(C)c4ccc(C#N)nc34)OC[C@@H]2CN1[C@H](CC)c1cccc(C(F)(F)F)c1 (stereo in doubt) [Compound 148],582

# Continued, molecule first:
Structure (SMILES),EC50 [2] [nM],EC50 [1] [nM]
CC[C@@H]1CN2c3c(c(=O)n(C)c4ccc(C#N)nc34)OC[C@@H]2CN1[C@H](c1ccc(F)cc1)c1nc(C2CC2)no1 (stereo in doubt) [Compound 160],21,75
CCC[C@@H]1CN2c3c(c(=O)n(C)c4ccc(C#N)nc34)OC[C@@H]2CN1[C@H](C)c1ccc(C(F)(F)F)cc1 (stereo in doubt) [Compound 158],277,579
CC[C@@H]1CN2c3c(c(=O)n(C)c4ccc(C#N)nc34)OC[C@@H]2CN1[C@H](CC)c1ccc(C(F)(F)F)c(F)c1 (stereo in doubt) [Compound 320],42,56
CC[C@@H]1CN2c3c(c(=O)[nH]c4ccc(C#N)nc34)OC[C@@H]2CN1[C@@H](CC)c1ccc(C(F)(F)F)cc1 [Compound 252],122,106
CC[C@@H]1CN2c3c(c(=O)n(C)c4ccc(C#N)nc34)N(C)C[C@@H]2CN1[C@@H](CC)c1ccc(C(F)(F)F)cc1 [Compound 221],503,624
CC[C@@H]1CN2c3c(c(=O)n(C)c4ccc(C#N)nc34)OC[C@@H]2CN1[C@@H](CC)c1ccc(F)cc1F (stereo in doubt) [Compound 174],13,25
C[C@@H]1CN2c3c(c(=O)n(C)c4ccc(C#N)nc34)OC[C@@H]2CN1[C@@H](C)c1ccc(Cl)cc1 (stereo in doubt) [Compound 271],79,57
C[C@@H]1CN2c3c(c(=O)n(C)c4ccc(C#N)nc34)OC[C@@H]2CN1[C@H](C)c1ccc(C(C)(F)F)cc1 (stereo in doubt) [Compound 303],153,105
CC[C@@H]1CN2c3c(c(=O)n(C)c4ccc(C#N)nc34)OC[C@@H]2CN1[C@H](CC)c1ncc(C(F)(F)F)cn1 [Compound 330],267,115
CC[C@@H]1CN2c3c(c(=O)n(C)c4ccc(C#N)nc34)OC[C@@H]2CN1[C@@H](COC)c1ccc(C(F)(F)F)cc1 [Compound 283],40,36
CC[C@@H]1CN2c3c(c(=O)n(C)c4ccc(C#N)nc34)OC[C@@H]2CN1[C@H](c1ccc(C(F)(F)F)cc1)C1CC1 [Compound 347],9,13
Cn1c(=O)c2c(c3nc(C#N)ccc31)N1CC[C@@H](Oc3ccc(C(F)(F)F)cc3)C[C@H]1CO2 [Compound 325],688,561
C[C@@H]1CN2c3c(c(=O)n(C)c4ccc(C#N)nc34)OC[C@@H]2CN1[C@H](C)c1ccc(F)c(Cl)c1 (stereo in doubt) [Compound 259],624,1880
CC[C@H]1CN(C2CCCOc3cc(C(F)(F)F)ccc32)[C@H](CC)CN1c1nc(=O)n(C)c2ccc(C#N)nc12 (stereo partly shown) [Compound 154],526,734
CC[C@@H]1CN2c3c(c(=O)n(C)c4ccc(C#N)nc34)OC[C@@H]2CN1[C@H](CC)c1ccc(F)c(C)c1 (stereo in doubt) [Compound 336],131,163
CC[C@@H]1CN2c3c(c(=O)n(CC)c4ccc(C#N)nc34)OC[C@@H]2CN1[C@@H](CC)c1ccc(C(F)(F)F)cc1 (stereo in doubt) [Compound 228],87,227
"CCC(c1ccc(F)c(F)c1)N1C[C@H]2COc3c(c4nc(C#N)ccc4n(C)c3=O)N2C[C@H]1CC (single isomer, unassigned) [Compound 183]",77,156
CC[C@@H]1CN2c3c(c(=O)n(C)c4ccc(C#N)nc34)OC[C@@H]2CN1[C@@H](CC)c1ncc(C(F)(F)F)cn1 [Compound 331],14,16
CC[C@@H]1CN2c3c(c(=O)n(C)c4ccc(C#N)nc34)N(C)C(=O)[C@@H]2CN1[C@H](CC)c1ccc(C(F)(F)F)cc1 [Compound 199],873,1580
CC[C@@H]1CN2c3c(c(=O)n(C)c4ccc(C#N)nc34)OC[C@@H]2CN1[C@H](CC)c1ccc(C)c(F)c1 (stereo in doubt) [Compound 338],86,153
C[C@@H]1CN2c3c(c(=O)n(C)c4ccc(C#N)nc34)OC[C@@H]2CN1[C@H](C)c1ccc(Cl)c(Cl)c1 (stereo in doubt) [Compound 258],758,1100
